Experimental data taken from US20160045487A1, “COMPOSITIONS AND METHODS FOR TREATING NEUROPATHY” (CHILDEREN'S MEDICAL CENTER CORPORATION, priority 2013, published 2016).

Experiments:
GFRα2/RET = target: T1, GFRα2/RET (Homo sapiens, UniProt O00451+P07949); experiment: NRTN/GFRα2-induced RET phosphorylation in B(E)2-C cells; assay type: cell-based; conditions: 2 nM NRTN with 20 μM XIB4035, 10 minutes, then 60 minutes growth medium
T1 construct: B(E)2-C cells, which express only GFRα2 together with RET; endogenous in cells; host or cells: B(E)2-C / BE(2)-C cells
T1 sequence (O00451 22-444 limits assumed): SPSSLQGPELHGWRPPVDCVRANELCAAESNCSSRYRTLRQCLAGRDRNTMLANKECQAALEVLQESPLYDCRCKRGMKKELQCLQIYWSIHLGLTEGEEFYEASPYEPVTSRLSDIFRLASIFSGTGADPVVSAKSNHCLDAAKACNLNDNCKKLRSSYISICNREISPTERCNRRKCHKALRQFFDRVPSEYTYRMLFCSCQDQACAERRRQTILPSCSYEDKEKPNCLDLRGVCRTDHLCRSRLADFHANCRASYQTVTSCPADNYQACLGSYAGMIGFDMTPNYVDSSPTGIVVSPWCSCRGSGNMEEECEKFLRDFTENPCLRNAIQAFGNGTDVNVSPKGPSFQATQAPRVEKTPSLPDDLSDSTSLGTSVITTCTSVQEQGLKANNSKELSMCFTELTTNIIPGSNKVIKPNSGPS
T1 sequence (P07949 29-1114): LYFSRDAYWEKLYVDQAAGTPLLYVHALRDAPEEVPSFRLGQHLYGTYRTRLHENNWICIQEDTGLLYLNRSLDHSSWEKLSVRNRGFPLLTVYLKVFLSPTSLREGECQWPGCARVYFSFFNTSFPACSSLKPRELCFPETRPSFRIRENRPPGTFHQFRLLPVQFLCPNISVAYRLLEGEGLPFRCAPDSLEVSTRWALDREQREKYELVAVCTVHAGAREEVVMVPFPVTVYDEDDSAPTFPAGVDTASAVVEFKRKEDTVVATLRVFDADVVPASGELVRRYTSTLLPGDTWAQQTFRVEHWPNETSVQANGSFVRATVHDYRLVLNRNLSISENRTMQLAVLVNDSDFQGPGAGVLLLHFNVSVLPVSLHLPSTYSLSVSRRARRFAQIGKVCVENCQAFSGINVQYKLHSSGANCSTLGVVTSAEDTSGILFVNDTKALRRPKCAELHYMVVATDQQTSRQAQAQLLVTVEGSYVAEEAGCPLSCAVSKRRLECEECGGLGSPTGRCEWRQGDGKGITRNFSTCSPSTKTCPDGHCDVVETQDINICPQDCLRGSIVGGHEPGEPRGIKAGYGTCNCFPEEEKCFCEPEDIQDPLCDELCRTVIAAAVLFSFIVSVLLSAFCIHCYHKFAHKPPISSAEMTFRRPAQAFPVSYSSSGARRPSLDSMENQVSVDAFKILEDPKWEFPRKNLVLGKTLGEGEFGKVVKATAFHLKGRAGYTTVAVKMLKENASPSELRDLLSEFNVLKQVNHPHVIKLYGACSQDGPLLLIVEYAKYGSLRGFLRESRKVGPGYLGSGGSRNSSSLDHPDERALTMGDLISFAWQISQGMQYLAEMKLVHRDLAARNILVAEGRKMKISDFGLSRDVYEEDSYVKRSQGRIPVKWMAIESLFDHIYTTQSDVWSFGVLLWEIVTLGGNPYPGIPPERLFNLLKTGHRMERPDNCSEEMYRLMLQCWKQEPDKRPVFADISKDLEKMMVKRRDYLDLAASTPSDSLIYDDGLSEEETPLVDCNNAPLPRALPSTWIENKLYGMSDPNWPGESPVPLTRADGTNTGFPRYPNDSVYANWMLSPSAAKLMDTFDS
Method: B(E)2-C cells, which express GFRα2, were treated under different conditions (no treatment, 2 nM NRTN, or 2 nM NRTN with 20 μM XIB4035) for 10 minutes. Cells were either lysed immediately or after incubation in growth medium for an additional 60 minutes.
Since the original report argued that XIB4035 displaces GDNF binding to GFRα1 expressing cells (FIG. 2 in Tokugawa et al., Neurochem Int 42, 81-86 (2003).), potentially ARTN, on TH-luciferase activity and Ret phosphorylation. […] In this experiment, cells were treated with GDNF or ARTN with or without XIB4035 for 10 minutes and cell lysates were either collected immediately or treatment was washed out and replaced with growth media for 30, 60, or 120 minutes. […] Therefore, we tested cells expressing only one GFRα using either N2A cells (which express RET) transfected with GFRα1 or GFRα3 expression constructs, or B(E)2-C cells, which express only GFRα2 together with RET. […] The GFRα1 or GFRα3 transfected N2A cells were then treated with XIB4035 alone, the appropriate ligand for the expressed receptor alone, or XIB4035 and ligand in combination for 10 minutes, and collected lysates immediately after treatment or 60 minutes after washout. […] Similar results were obtained with GFRα2 and NRTN using B(E)2-C cells (FIG. 8). […]

TrkA = target: T2, TrkA (Rattus norvegicus, UniProt P35739); experiment: NGF-induced TrkA phosphorylation in PC12 cells; assay type: cell-based; conditions: 50 ng/ml NGF with 20 μM XIB4035, 10 minutes; 15, 30 or 45 minutes after
T2 construct: endogenous in cells; host or cells: PC12 (PC-12) cells
T2 sequence (P35739 33-799): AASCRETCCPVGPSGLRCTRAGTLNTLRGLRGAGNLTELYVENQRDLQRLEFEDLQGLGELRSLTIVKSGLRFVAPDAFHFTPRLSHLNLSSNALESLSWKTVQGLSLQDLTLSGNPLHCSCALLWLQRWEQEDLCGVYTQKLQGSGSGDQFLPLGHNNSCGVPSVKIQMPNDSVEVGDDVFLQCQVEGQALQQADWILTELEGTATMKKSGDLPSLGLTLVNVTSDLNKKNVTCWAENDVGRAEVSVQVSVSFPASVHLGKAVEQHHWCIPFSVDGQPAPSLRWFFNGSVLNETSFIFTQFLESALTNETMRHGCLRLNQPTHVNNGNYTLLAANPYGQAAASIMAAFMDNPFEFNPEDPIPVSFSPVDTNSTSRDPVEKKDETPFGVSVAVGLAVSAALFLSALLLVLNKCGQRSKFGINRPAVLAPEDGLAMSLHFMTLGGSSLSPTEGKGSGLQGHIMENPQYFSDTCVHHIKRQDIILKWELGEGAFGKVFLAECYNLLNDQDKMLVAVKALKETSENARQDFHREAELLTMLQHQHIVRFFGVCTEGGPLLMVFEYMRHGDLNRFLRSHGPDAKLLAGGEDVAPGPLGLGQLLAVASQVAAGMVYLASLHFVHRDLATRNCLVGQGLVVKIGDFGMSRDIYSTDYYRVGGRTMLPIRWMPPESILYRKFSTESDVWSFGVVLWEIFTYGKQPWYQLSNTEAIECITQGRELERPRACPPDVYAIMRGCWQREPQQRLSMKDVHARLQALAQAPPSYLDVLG
Method: PC12 cells were treated with 50 ng/ml of NGF with or without 20 μM XIB4035 for 10 minutes. Cell lysates were either collected immediately or after cells were incubated in growth media for additional 15, 30, or 45 minutes. Cell lysates were subjected to immunoprecipitation using anti-TrkA antibodies and analysis via phospho-tyrosine Western blot. TrkA phosphorylation is not prolonged by addition of XIB4035.
For phosphorylated Ret immunoblot experiments, cells were treated with various combinations of molecules for 10 minutes and either collected immediately or had treatment washed out and returned to control treatment media for the times indicated prior to cell collection. Lysates were collected in buffer containing: 50 mM Tris-HCL, 1% TX-100, 0.25% Deoxycholic acid, 150 mM sodium chloride, 1 mM EDTA, 0.1 mM sodium fluoride, 0.1 mM sodium pyrophosphate, 0.02 mM sodium orthovanadate, and protease inhibitors Immunoblots were blocked in 5% bovine serum albumin in tris-buffered saline+0.2% Tween 20+0.1 mM sodium fluoride, 0.1 mM sodium pyrophosphate, and 0.02 mM sodium orthovanadate and probed in blocking solution using anti-phospotyrosine (4G10) mouse monoclonal antibody (1:2000; EMD Milipore Corp., Billerica, Mass.). Secondary detection was performed in blocking solution using HRP-conjugated goat-anti-mouse antibodies (1:1000; MP Biolomedicals LLC, Solon, Ohio). […]

[1] = system: GFRα/RET receptor signaling; experiment: Tyrosine hydroxylase promoter luciferase reporter assay in SH-SY5Y-THpGL3 cells; assay type: cell-based, human; conditions: for effect in the TH-luciferase assay: XIB4035 alone
From the text: One goal of these studies was to determine if XIB4035 could be used for treating SFN in humans. Using the Neuro2A (N2A) murine neuroblastoma cell line, Tokugawa et al. (supra) reported XIB4035 as a competitive agonist for the GDNF receptor GFRα1 that activates the RET receptor. Since populations of DRG sensory neurons express different GFRα receptors, thus making them preferentially responsive to the particular ligands, it was important to determine if XIB4035 was specific to GFRα1 or could act on other family members. Since PSPN has no effect on peripheral sensory neurons, the GFRα1, GFRα2, and GFRα3 receptors were the focus of these studies. The SH-SY5Y, a human neuroblastoma cell line expressing mRNA for GFRα1, GFRα2, and GFRα3, was used to perform two cell-based assays; immunoblots measuring RET phosphorylation and a luciferase reporter assay using the tyrosine hydroxylase (TH) promoter. For the latter two paradigms were used, either overnight treatment immediately followed by luciferase activity measurements or 10 minute treatments followed by washout and overnight incubation prior to measurements. GDNF and ARTN induced robust TH-luciferase activity in a dose dependent manner (FIG. 3E). Because the responses to GDNF and ARTN were more robust, these two factors were chosen for further analysis.
The tyrosine hydroxylase promoter was cloned into the pGL3 basic vector (Promega, Madison, Wis., USA) at the Mlu I and Hind III sites, as previously described (Zwick, supra) (TH-pGL3). Briefly, a 2 Kb promoter region upstream from the transcription initiation site of the rat TH gene was cloned from genomic DNA using the primer sequences, […] and […]. SH-SY5Y cells were co-transfected with the TH-pGL3 and the pBabe-puromycin expression vectors at a molar ratio of 10:1. Cells were selected for stable puromycin resistance at a final concentration of 0.5 μg/ml of puromycin-dihydrochloride. Stable colonies were selected and tested for TH-directed luciferase response to GDNF family ligand stimulation. One stable clone, SH-SY5Y-THpGL3, with good signal-to-noise ratio was selected for use in the experiments.
SH-SY5Y-THpGL3 cells were maintained in DMEM/F12, 5% FBS, and 1% penicillin/streptomycin and plated on collagen coated plates (4 μg/ml). Neuro-2A cells were grown in MEM, 5% FBS, and 1% penicillin/streptomycin. BE(2)-C cells were grown in DMEM/F12 media containing 5% FBS and 1% penicillin/streptomycin. PC-12 cells were maintained in media containing RPMI-1640, 10% horse serum, 5% FBS, and 1% penicillin/streptomycin on collagen coated plates. For luciferase assays, cells were treated for either 10 minutes with washout or overnight with various molecules and assayed for firefly luciferase 16-24 hours post-treatment using the luciferase assay system (Promega, Madison, Wis., USA).

In the case of `CCN(CC)CCCC(C)Nc1cc(/C=C/c2ccccc2Cl)nc2cc(Cl)ccc12` (stereo not drawn) [XIB4035, N4-{7-chloro-2-[(E)-2-(2-chloro-phenyl)-vinyl]-quinolin-4-yl}-N1,N1-diethyl-pentane-1,4-diamine], the “RET phosphorylation at 60 min” value (GFRα2/RET) is reported as “detected”, the “NGF-induced TrkA phosphorylation” value (TrkA) is reported as “not prolonged” and the “maximal effect, luciferase activity” value ([1]; 18 nM ARTN + 20 μM XIB4035) is reported as 3.61±0.47 fold over control. For the same compound, the “maximal effect, luciferase activity” value ([1]; 18 nM GDNF + 20 μM XIB4035) was 3.41±0.41 fold over control, the “minimal ARTN dose necessary to induce luciferase activity above control” value ([1]; ARTN + 20 μM XIB4035, 10 minutes, washout, overnight) was 2.7 pM and the “minimal GDNF dose necessary to induce luciferase activity above control” value ([1]; GDNF + 20 μM XIB4035, 10 minutes, washout, overnight) was 2.7 pM. The “effect in the TH-luciferase assay” value ([1]; 10 minute treatment, 1-15 μM, washout, overnight incubation) was “no effect”, the “effect in the TH-luciferase assay” value ([1]; overnight treatment, 6.25-500 nM) was “no effect” and the “effect on ligand-induced TH-luciferase activity” value ([1]; co-treatment with either GDNF or ARTN over a range of doses) was “significantly potentiates”.
